In patent US8076352B2, “Administration of carboline derivatives useful in the treatment of cancer and other diseases” (PTC Therapeutics, Inc., priority 2004, dated 2011):

Tested on: hypoxia-inducible endogenous VEGF expression in HeLa cells
Assay: Hypoxia-inducible endogenous VEGF expression, VEGF ELISA of conditioned media (dose-response EC50)
Type: cell-based
Details: Homo sapiens, HeLa cells under hypoxic conditions
In short: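 HeLa cells were cultured 24-48 h under hypoxia (1% O2, 5% CO2, balance N2) with or without compound. Conditioned-media VEGF protein was measured by ELISA against a standard curve. EC50 and CC50 come from percentage-inhibition curves over, e.g., seven concentrations, with maximal inhibition set at 100%.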

Row | Compound | EC50 [nM]
1 | COc1ccc(C2c3[nH]c4ccc(Cl)cc4c3CCN2C(=O)OCCCl)cc1 (stereo not drawn) [Compound 61] | 8 to 40
2 | COC(=O)N1CCc2c([nH]c3ccc(Cl)cc23)C1c1ccc(C(F)(F)F)cc1 (stereo not drawn) [Compound 62] | 8 to 40
3 | CCOC(=O)N1CCc2c([nH]c3ccc(F)cc23)C1c1ccc(Br)cc1 (stereo not drawn) [Compound 196] | 200 to 1000
4 | CCCOC(=O)N1CCc2c([nH]c3ccc(Cl)cc23)C1c1ccccc1F (stereo not drawn) [Compound 97] | 8 to 40
5 | COc1ccc(C2NC(C(=O)Nc3ncc(C)s3)Cc3c2[nH]c2ccc(Br)cc32)cc1 (stereo not drawn) [Compound 246] | > 1000
6 | CC(C)OC(=O)N1CCc2c([nH]c3ccc(Cl)cc23)C1c1ccc(C(F)(F)F)cc1 (stereo not drawn) [Compound 26] | < 8
7 | Brc1cccc(C2NCCc3c2[nH]c2ccc(Br)cc32)c1 (stereo not drawn) [Compound 213] | 200 to 1000
8 | CC(C)OC(=O)N1CCc2c([nH]c3ccc(Cl)cc23)C1c1ccc(C#N)cc1 (stereo not drawn) [Compound 45] | < 8
9 | COc1ccc(C2NCCc3c2[nH]c2ccc(Cl)cc32)cc1 (stereo not drawn) [Compound 231] | > 1000
10 | COC(=O)N1CCc2c([nH]c3ccc(Cl)cc23)C1c1ccc(F)c(F)c1 (stereo not drawn) [Compound 134] | 40 to 200
11 | CC(=O)N1CCc2c([nH]c3ccc(Br)cc23)C1c1ccc(Cl)cc1 (stereo not drawn) [Compound 50] | 8 to 40
12 | CCOC(=O)N1CCc2c([nH]c3ccc(Br)cc23)C1c1cc(F)cc(F)c1 (stereo not drawn) [Compound 64] | 8 to 40
13 | Oc1cccc(C2NCCc3c2[nH]c2ccc(Cl)cc32)c1 (stereo not drawn) [Compound 291] | > 1000
14 | CCNC(=O)N1CCc2c([nH]c3ccc(Cl)cc23)C1c1ccc(OC)cc1 (stereo not drawn) [Compound 172] | 200 to 1000
15 | CCOC(=O)N1CCc2c([nH]c3ccc(Cl)cc23)C1c1cccc(Br)c1 (stereo not drawn) [Compound 93] | 8 to 40
16 | O=c1c(C2NCCc3c2[nH]c2ccc(Cl)cc32)coc2ccccc12 (stereo not drawn) [Compound 234] | > 1000

Row | Compound | EC50 [nM]
17 | CCS(=O)(=O)N1CCc2c([nH]c3ccc(Cl)cc23)C1c1ccc(OC)cc1 (stereo not drawn) [Compound 189] | 200 to 1000
18 | CCCOC(=O)N1CCc2c([nH]c3ccc(Cl)cc23)C1c1cccc(F)c1 (stereo not drawn) [Compound 75] | 8 to 40
19 | CCOC(=O)N1Cc2c([nH]c3ccc(Cl)cc23)C(c2ccccc2)C1 (stereo not drawn) [Compound 250] | > 1000
20 | CCOC(=O)N1CCc2c([nH]c3ccc(F)cc23)C1c1cccc(Cl)c1 (stereo not drawn) [Compound 284] | > 1000
21 | CCOC(=O)N1CCc2c([nH]c3ccc(Cl)cc23)C1c1ccc(C)cc1 (stereo not drawn) [Compound 91] | 8 to 40
22 | CCOC(=O)N1CCc2c([nH]c3ccc(F)cc23)C1c1ccc(C)cc1 (stereo not drawn) [Compound 209] | 200 to 1000
23 | O=C(OCCCl)N1CCc2c([nH]c3ccc(Cl)cc23)C1c1ccc(Br)cc1 (stereo not drawn) [Compound 58] | 8 to 40
24 | O=C(OCCCl)N1CCc2c([nH]c3ccc(Cl)cc23)C1c1cccc(F)c1F (stereo not drawn) [Compound 6] | < 8
25 | S=C(NC1CCCCC1)N1CCc2c([nH]c3ccc(Br)cc23)C1c1cccc(Cl)c1 (stereo not drawn) [Compound 150] | 40 to 200
26 | CCOC(=O)N1CCc2c([nH]c3ccc(Cl)cc23)C1c1ccc(Cl)cc1Cl (stereo not drawn) [Compound 141] | 40 to 200
27 | COc1ccccc1C1NCCc2c1[nH]c1ccc(Cl)cc21 (stereo not drawn) [Compound 301] | > 1000
28 | CCOC(=O)N1CCc2c([nH]c3ccc(Br)cc23)C1c1cccc(Br)c1 (stereo not drawn) [Compound 44] | < 8
29 | CCOC(=O)N1CCc2[nH]c3ccc(Br)cc3c2C1 [Compound 243] | > 1000
30 | ON1CCc2c([nH]c3ccc(Br)cc23)C1c1ccccc1 (stereo not drawn) [Compound 138] | 40 to 200
31 | CCC1NCCc2c1[nH]c1ccc(Cl)cc21 (stereo not drawn) [Compound 298] | > 1000

Continued, values first:

Row | EC50 [nM] | Compound
32 | > 1000 | c1ccc(COc2ccc3[nH]c4c(c3c2)CCNC4c2ccoc2)cc1 (stereo not drawn) [Compound 311]
33 | 40 to 200 | COc1ccc(C2c3[nH]c4ccc(Cl)cc4c3CCN2C(=O)Cc2cccs2)cc1 (stereo not drawn) [Compound 374]
34 | > 1000 | COc1ccc(C2NCCc3c2[nH]c2ccc(Cl)cc32)cc1OC (stereo not drawn) [Compound 327]
35 | < 8 | CCOC(=O)N1CCc2c([nH]c3ccc(Br)cc23)C1c1cnc(SC)nc1 (stereo not drawn) [Compound 393]
36 | > 1000 | c1ccc(COc2ccc3[nH]c4c(c3c2)CCNC4c2cccnc2)cc1 (stereo not drawn) [Compound 320]
37 | > 1000 | COc1ccc(C2c3[nH]c4ccccc4c3CCN2C(=O)Nc2ccccc2)cc1 (stereo not drawn) [Compound 302]
38 | 200 to 1000 | Clc1ccc2[nH]c3c(c2c1)CCN(c1ncccn1)C3c1ccc(OCCN2CCOCC2)cc1 (stereo not drawn) [Compound 356]
39 | 200 to 1000 | COc1ccc(C2c3[nH]c4ccc(Cl)cc4c3CCN2C(=O)Cc2ccccc2)cc1 (stereo not drawn) [Compound 368]

Same assay, conditions: Homo sapiens, HeLa cells, hypoxic conditions (1% O2)

Row | Compound | EC50 [nM]
40 | O=C(Oc1ccc(Cl)cc1)N1CCc2c([nH]c3ccc(Cl)cc23)C1c1ccc(OCCCCNCCO)cc1 (stereo not drawn) [Compound 699] | 8 to 40
41 | O=C1NC2CSC(CCCCC(=O)OCCOc3ccc(C4c5[nH]c6ccc(Cl)cc6c5CCN4C(=O)Oc4ccc(Cl)cc4)cc3)C2N1 (stereo not drawn) [Compound 544] | < 8
42 | CN1CCN(CCCCOc2ccc(C3c4[nH]c5ccc(Cl)cc5c4CCN3C(=O)Oc3ccc(F)cc3)cc2)CC1 (stereo not drawn) [Compound 740] | 40 to 200
43 | CN1CCN(CCCCOc2ccc(C3c4[nH]c5ccc(Cl)cc5c4CCN3C(=O)Oc3ccc(Cl)cc3)cc2)CC1 (stereo not drawn) [Compound 704] | 40 to 200
44 | CC(=O)N1CCN(CC(O)COc2ccc(C3c4[nH]c5ccc(Cl)cc5c4CCN3C(=O)Oc3ccc(Cl)cc3)cc2)CC1 (stereo not drawn) [Compound 415] | < 8
45 | O=C(Oc1ccc(F)cc1)N1CCc2c([nH]c3ccc(Cl)cc23)C1c1ccc(OCCCCNCCCn2ccnc2)cc1 (stereo not drawn) [Compound 741] | 40 to 200
46 | O=C(Oc1ccc(F)cc1)N1CCc2c([nH]c3ccc(Cl)cc23)C1c1ccc(OCCCCN2CCCCC2)cc1 (stereo not drawn) [Compound 739] | < 8

Now from value to molecule:

Row | EC50 [nM] | Compound
47 | 8 to 40 | CCOC(=O)N1CCc2c([nH]c3ccc(Cl)cc23)C1c1ccc(C(=O)NCC2COC(C)(C)O2)cc1 (stereo not drawn) [Compound 461]
48 | < 8 | CCOC(=O)N1CCc2c([nH]c3ccc(Br)cc23)C1c1ccc(C(=O)NCCOC)cc1 (stereo not drawn) [Compound 438]
49 | 40 to 200 | CCOC(=O)N1CCc2c([nH]c3ccc(Cl)cc23)C1CC(C)(C)C (stereo not drawn) [Compound 486]
50 | 40 to 200 | COc1ccc(C2c3[nH]c4ccc(Cl)cc4c3CCN2C(=O)Oc2ccccc2Cl)cc1 (stereo not drawn) [Compound 587]
51 | 40 to 200 | CCOC(=O)N1CCc2c([nH]c3ccc(Cl)cc23)C1c1ccc(C(=O)NCCN2CCOCC2)cc1 (stereo not drawn) [Compound 509]
52 | 40 to 200 | CCOC(=O)N1CCc2c([nH]c3ccc(Br)cc23)C1c1ccc(C(=O)N(C)C)cc1 (stereo not drawn) [Compound 483]
53 | < 8 | O=C(Oc1ccc(F)cc1)N1CCc2c([nH]c3ccc(Cl)cc23)C1c1ccc(OCC(O)CO)cc1 (stereo not drawn) [Compound 627]
54 | 40 to 200 | CCOC(=O)N1CCc2c([nH]c3ccc(Br)cc23)C1c1ccc(C(=O)N2CCN(C)CC2)cc1 (stereo not drawn) [Compound 478]
55 | < 8 | Cc1ccc(C2c3[nH]c4ccc(Br)cc4c3CCN2C(=O)Oc2ccc(F)cc2)cc1 (stereo not drawn) [Compound 398]
56 | 8 to 40 | CNc1ncc(C2c3[nH]c4ccc(Br)cc4c3CCN2c2ncccn2)cn1 (stereo not drawn) [Compound 443]
57 | 8 to 40 | CC(=O)Oc1ccc(C2c3[nH]c4ccc(Cl)cc4c3CCN2C(=O)Oc2ccc(Cl)cc2)cc1 (stereo not drawn) [Compound 463]
58 | < 8 | COCCOCCOc1ccc(C2c3[nH]c4ccc(Cl)cc4c3CCN2C(=O)Oc2ccc(Br)cc2)cc1 (stereo not drawn) [Compound 680]
59 | < 8 | CCOC(=O)N1CCc2c([nH]c3ccc(Br)cc23)C1c1ccc(CO)cc1 (stereo not drawn) [Compound 430]
60 | 200 to 1000 | CCOC(=O)N1CCc2c([nH]c3ccc(Cl)cc23)C1c1cccc(C(=O)NCCOC)c1 (stereo not drawn) [Compound 556]
61 | 40 to 200 | CCOC(=O)N1CCc2c([nH]c3ccc(Br)cc23)C1c1ccc(C(N)=O)cc1 (stereo not drawn) [Compound 505]
62 | 40 to 200 | C=CC(=O)Nc1ccc(C2c3[nH]c4ccc(Cl)cc4c3CCN2C(=O)Oc2ccc(Cl)cc2)cc1 (stereo not drawn) [Compound 500]
63 | 40 to 200 | CCOC(=O)N1CCc2c([nH]c3ccc(Cl)cc23)C1c1ccsc1 (stereo not drawn) [Compound 513]
64 | 200 to 1000 | CCOC(=O)N1CCc2c([nH]c3ccc(Cl)cc23)C1c1cccc(C(=O)NC)c1 (stereo not drawn) [Compound 524]
65 | 8 to 40 | COCCOCCOc1ccc(C2c3[nH]c4ccc(Cl)cc4c3CCN2C(=O)Oc2ccccc2Cl)cc1 (stereo not drawn) [Compound 674]
66 | < 8 | COCCOc1ccc(C2c3[nH]c4ccc(Cl)cc4c3CCN2C(=O)OCC(C)C)cc1 (stereo not drawn) [Compound 407]
67 | < 8 | COCCOc1ccc(C2c3[nH]c4ccc(Cl)cc4c3CCN2C(=O)OCc2ccccc2)cc1 (stereo not drawn) [Compound 419]

Same assay, conditions: Homo sapiens, HeLa cells, hypoxic conditions (1% O2, 5% CO2)

Row | Compound | EC50 [nM]
68 | CCN(CC)CCCOc1ccc(C2c3[nH]c4ccc(Cl)cc4c3CCN2C(=O)Oc2ccc(Cl)cc2)cc1 (stereo not drawn) [Compound 946] | 8 to 40
69 | CC(=O)N1CCN(CCCOc2ccc(C3c4[nH]c5ccc(Cl)cc5c4CCN3C(=O)Oc3ccc(F)cc3)cc2)CC1 (stereo not drawn) [Compound 988] | < 8
70 | COCCN(CCOC)CC(O)COc1ccc(C2c3[nH]c4ccc(Cl)cc4c3CCN2C(=O)Oc2ccc(Cl)cc2)cc1 (stereo not drawn) [Compound 918] | < 8
71 | COCCN(C)CCCOc1ccc(C2c3[nH]c4ccc(Cl)cc4c3CCN2C(=O)Oc2ccc(Cl)cc2)cc1 (stereo not drawn) [Compound 908] | < 8
72 | CC(C)NCC(O)COc1ccc(C2c3[nH]c4ccc(Cl)cc4c3CCN2C(=O)Oc2ccc(Cl)cc2)cc1 (stereo not drawn) [Compound 977] | 40 to 200
73 | O=C(Oc1ccc(Cl)cc1)N1CCc2c([nH]c3ccc(Cl)cc23)C1c1ccc(OCC(O)CN2CCSCC2)cc1 (stereo not drawn) [Compound 923] | < 8
74 | O=C(Oc1ccc(Cl)cc1)N1CCc2c([nH]c3ccc(Cl)cc23)C1c1ccc(OCC(O)CN2CCOCC2)cc1 (stereo not drawn) [Compound 904] | < 8
75 | O=C(Oc1ccc(F)cc1)N1CCc2c([nH]c3ccc(Cl)cc23)C1c1ccc(OCCNc2nccs2)cc1 (stereo not drawn) [#837] | < 8
76 | CN1CCCC(COc2ccc(C3c4[nH]c5ccc(Cl)cc5c4CCN3C(=O)Oc3ccccc3)cc2)C1 (stereo not drawn) [Compound 952] | 8 to 40
77 | O=C(Oc1ccc(Cl)cc1)N1CCc2c([nH]c3ccc(Cl)cc23)C1c1ccc(OCCCCl)cc1 (stereo not drawn) [Compound 921] | < 8
78 | Cc1cnc(NCCOc2ccc(C3c4[nH]c5ccc(Cl)cc5c4CCN3C(=O)Oc3ccc(Cl)cc3)cc2)s1 (stereo not drawn) [#842] | < 8
